Test results reported in ChEMBL document CHEMBL5247653, “Discovery of Clinical Candidate ACT-777991, a Potent CXCR3 Antagonist for Antigen-Driven and Inflammatory Pathologies” (J Med Chem, 2023).
Calls of active or inactive are those of the source. No cut-off for these calls is given here.

Assays:
[1] = Protein binding in human plasma assessed as fraction unbound at 20 ug/ml using 14C-labeled ligand by rapid equilibrium dialysis; format: ADME, cell-free; conditions: at 20 µg/mL
[2] = target: T1, C-X-C chemokine receptor type 3 (Homo sapiens, UniProt P49682); assay: Antagonist activity at human CXCR3 expressed in CHO-K1 cells assessed as reduction in CXCL10 induced calcium flux by FLIPR method; format: cell-based
T1 sequence (P49682 whole entry): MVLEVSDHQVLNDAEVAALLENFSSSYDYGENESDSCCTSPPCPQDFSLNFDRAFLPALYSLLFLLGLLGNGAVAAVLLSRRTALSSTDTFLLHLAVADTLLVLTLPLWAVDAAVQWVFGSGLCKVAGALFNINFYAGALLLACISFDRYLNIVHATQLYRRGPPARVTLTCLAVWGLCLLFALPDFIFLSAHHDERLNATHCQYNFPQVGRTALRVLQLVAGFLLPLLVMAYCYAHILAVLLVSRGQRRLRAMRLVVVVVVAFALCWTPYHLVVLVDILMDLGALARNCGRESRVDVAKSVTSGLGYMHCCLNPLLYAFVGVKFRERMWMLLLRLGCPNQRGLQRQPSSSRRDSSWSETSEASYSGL

[3] = target: N-formyl peptide receptor 2 (Homo sapiens) (UniProt P25090); assay: Binding affinity to FPR2 (unknown origin) at 10 uM by radioligand binding assay
[4] = In vivo inhibition of hERG in po dosed dog assessed as increase in QTc interval; format: toxicity, organism-based, Canis lupus familiaris
Mus musculus = assay: Antiinflammatory activity against LPS-induced DBA/1 mouse model assessed as reduction in CXCR3+ CD8+ T cells infiltration into BAL at 0.006 to 2 microg/g, po bid preincubated for 3 days followed by LPS stimulation for 30 mins and measured after 3 days by flow cytometry; format: functional, organism-based; conditions: T-cell, dose 0.006-2 µg/g, time 6.0 day
[5] = Protein binding in dog plasma assessed as fraction unbound at 1 uM incubated for 6 hrs by rapid equilibrium dialysis based LC-MS/MS analysis; format: ADME, cell-free, Canis lupus familiaris
[6] = Cardiotoxicity in human iPSC-derived cardiomyocytes assessed as slowing of spontaneous beating rate at 4.1 ug/ml; format: toxicity, cell-based; conditions: cardiac muscle cell, dose 4.1 µg/ml
[7] = Volume of distribution at steady state in Cynomolgus monkey at 1.0 mg/kg,iv or 1.25 mg/kg, po; format: ADME, organism-based, Macaca fascicularis; conditions: in vivo, read-out: Vdss
[8] = target: C-C chemokine receptor type 5 (Homo sapiens) (UniProt P51681); assay: Binding affinity to CCR5 (unknown origin) at 10 uM by radioligand binding assay
[9] = Tmax in Beagle dog at 2.5 mg/kg,iv or 2.5 mg/kg, po; format: ADME, organism-based, Canis lupus familiaris; conditions: in vivo
[10] = Metabolic stability in rat liver microsomes assessed as intrinsic clearance at 1 uM and measured upto 15 mins in presence of NADPH regenerating system by LC-MS/MS analysis; format: ADME, Microsome; conditions: read-out: CLH
[11] = target: T1, C-X-C chemokine receptor type 3; assay: Antagonist activity at CXCR3 (unknown origin) in human T cells in venous blood assessed as receptor internalization incubated for 30 mins in presence of CXCL10 by flow cytometric analysis; format: cell-based, T cell
[12] = Protein binding in dog plasma assessed as fraction unbound at 0.1 to 300 ug/ml using 14C-labeled ligand by rapid equilibrium dialysis; format: ADME, cell-free, Canis lupus familiaris; conditions: at 0.1 to 300 µg/mL, dose 0.1-300 µg/ml
[13] = target: C-X-C chemokine receptor type 3 (Canis lupus familiaris, UniProt Q5KSK8); assay: Antagonist activity at dog CXCR3 expressed in CHO-K1 cells assessed as reduction in CXCL11 induced calcium flux by FLIPR method; format: cell-based
Cytochrome P450 2D6 = Cytochrome P450 2D6 (Homo sapiens, UniProt P10635); assay: Time dependent inhibition of CYP2D6 (unknown origin); format: ADME
[14] = Cmin in LPS-induced DBA/1 mouse plasma at 0.06 microg/g, po bid preincubated for 3 days followed by LPS stimulation for 30 mins and measured after 72 hrs by flow cytometry; format: ADME, organism-based; conditions: dose 0.06 µg/g, time 6 day, read-out: Cmin
[15] = target: T2, C-X-C chemokine receptor type 3 (Mus musculus) (UniProt O88410); assay: In vivo antagonist activity at CXCR3 in LPS-induced DBA/1 mouse model assessed as reduction in mouse CXCL10-mediated chemotaxis in CD8+ T cells at 0.02 microg/g, po bid preincubated for 3 days followed by LPS stimulation for 30 mins and measured after 3 days by flow cytometry; format: functional, organism-based; set-up: scale not given: the % may be the effect or the level left; conditions: T-cell, dose 0.02 µg/g, time 6.0 day
T2 sequence (whole entry): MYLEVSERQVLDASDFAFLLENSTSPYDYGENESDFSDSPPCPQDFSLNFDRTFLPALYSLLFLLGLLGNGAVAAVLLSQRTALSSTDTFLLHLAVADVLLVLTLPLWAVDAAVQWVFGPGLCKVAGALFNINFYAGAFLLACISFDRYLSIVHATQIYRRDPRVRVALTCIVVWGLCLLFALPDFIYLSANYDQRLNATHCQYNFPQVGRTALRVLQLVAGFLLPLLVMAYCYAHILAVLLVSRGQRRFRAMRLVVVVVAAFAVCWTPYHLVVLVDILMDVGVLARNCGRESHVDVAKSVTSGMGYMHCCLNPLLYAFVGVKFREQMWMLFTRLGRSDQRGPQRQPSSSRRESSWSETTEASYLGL

[16] = target: Chemerin-like receptor 1 (Homo sapiens) (UniProt Q99788); assay: Binding affinity to ChemR23 (unknown origin) at 10 uM by radioligand binding assay
[17] = Metabolic stability in dog liver microsomes assessed as M3 metabolite formation at 1 uM and measured upto 15 mins in presence of NADPH regenerating system by LC-MS/MS analysis; format: ADME, Canis lupus familiaris, Microsome; conditions: 0.25 h
[18] = Protein binding in rabbit plasma assessed as fraction unbound at 0.1 to 300 ug/ml using 14C-labeled ligand by rapid equilibrium dialysis; format: ADME, cell-free, Oryctolagus cuniculus; conditions: at 0.1 to 300 µg/mL, dose 0.1-300 µg/ml
[19] = Dissociation constant, pKa of compound; format: physicochemical
[20] = Metabolic stability in dog hepatocyte assessed as M1 metabolite formation at 1 uM and measured upto 15 mins in presence of NADPH regenerating system by LC-MS/MS analysis; format: ADME, cell-based, Canis lupus familiaris; conditions: hepatocytes, 0.25 h
[21] = target: C-X-C chemokine receptor type 5 (Homo sapiens) (UniProt P32302); assay: Binding affinity to CXCR5 (unknown origin) at 10 uM by radioligand binding assay
[22] = Metabolic stability in dog hepatocytes assessed as intrinsic clearance per 10^6 cells at 1 uM by LC-MS/MS analysis; format: ADME, cell-based, Canis lupus familiaris, Hepatocyte
[23] = target: C-X-C chemokine receptor type 4 (Homo sapiens) (UniProt P61073); assay: Binding affinity to CXCR4 (unknown origin) at 10 uM by radioligand binding assay
[24] = Metabolic stability in rat hepatocyte assessed as M3 metabolite formation at 1 uM and measured upto 15 mins in presence of NADPH regenerating system by LC-MS/MS analysis; format: ADME, cell-based; conditions: hepatocytes, 0.25 h
[25] = target: C-X-C chemokine receptor type 3 (Rattus norvegicus, UniProt Q9JII9); assay: Antagonist activity at CXCR3 in Wistar rat whole blood assessed as receptor internalization incubated for 30 mins in presence of CXCL10 by flow cytometric analysis; format: tissue-based
[26] = Clearance in Cynomolgus monkey at 1.0 mg/kg,iv or 1.25 mg/kg, po; format: ADME, organism-based, Macaca fascicularis; conditions: in vivo

Chain of C-X-C chemokine receptor type 3 (Canis lupus familiaris, UniProt Q5KSK8) (Q5KSK8 whole entry): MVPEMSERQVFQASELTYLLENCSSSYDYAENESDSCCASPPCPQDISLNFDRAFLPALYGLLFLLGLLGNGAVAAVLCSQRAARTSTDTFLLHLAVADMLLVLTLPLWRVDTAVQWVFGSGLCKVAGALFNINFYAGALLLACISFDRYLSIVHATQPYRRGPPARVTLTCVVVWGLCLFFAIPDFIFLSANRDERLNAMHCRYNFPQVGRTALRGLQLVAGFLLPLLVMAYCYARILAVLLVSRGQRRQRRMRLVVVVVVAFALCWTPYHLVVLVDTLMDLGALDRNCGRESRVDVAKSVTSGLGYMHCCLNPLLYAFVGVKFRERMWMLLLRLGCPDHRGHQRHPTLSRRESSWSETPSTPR
Chain of C-X-C chemokine receptor type 5 (Homo sapiens) (P32302 whole entry): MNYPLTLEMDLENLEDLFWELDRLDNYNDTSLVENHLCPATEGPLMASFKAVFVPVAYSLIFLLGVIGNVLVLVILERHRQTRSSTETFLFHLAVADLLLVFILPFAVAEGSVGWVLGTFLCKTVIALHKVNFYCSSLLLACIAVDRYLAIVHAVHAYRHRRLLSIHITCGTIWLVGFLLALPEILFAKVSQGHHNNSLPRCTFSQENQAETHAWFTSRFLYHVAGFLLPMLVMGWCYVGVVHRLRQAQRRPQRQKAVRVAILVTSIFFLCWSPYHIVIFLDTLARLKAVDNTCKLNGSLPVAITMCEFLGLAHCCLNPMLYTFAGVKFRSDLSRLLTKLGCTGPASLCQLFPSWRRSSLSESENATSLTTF
Chain of C-X-C chemokine receptor type 3 (Rattus norvegicus, UniProt Q9JII9) (Q9JII9 whole entry): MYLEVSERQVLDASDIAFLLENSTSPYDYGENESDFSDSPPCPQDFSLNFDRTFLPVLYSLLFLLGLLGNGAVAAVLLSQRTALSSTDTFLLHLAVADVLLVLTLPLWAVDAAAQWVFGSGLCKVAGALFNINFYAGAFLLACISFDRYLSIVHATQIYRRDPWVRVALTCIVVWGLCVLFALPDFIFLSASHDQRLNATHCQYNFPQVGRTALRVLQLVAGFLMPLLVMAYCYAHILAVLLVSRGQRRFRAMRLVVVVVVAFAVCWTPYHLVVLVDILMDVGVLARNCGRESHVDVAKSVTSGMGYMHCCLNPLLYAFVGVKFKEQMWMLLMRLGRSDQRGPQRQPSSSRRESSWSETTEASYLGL
Chain of Chemerin-like receptor 1 (Homo sapiens) (Q99788 whole entry): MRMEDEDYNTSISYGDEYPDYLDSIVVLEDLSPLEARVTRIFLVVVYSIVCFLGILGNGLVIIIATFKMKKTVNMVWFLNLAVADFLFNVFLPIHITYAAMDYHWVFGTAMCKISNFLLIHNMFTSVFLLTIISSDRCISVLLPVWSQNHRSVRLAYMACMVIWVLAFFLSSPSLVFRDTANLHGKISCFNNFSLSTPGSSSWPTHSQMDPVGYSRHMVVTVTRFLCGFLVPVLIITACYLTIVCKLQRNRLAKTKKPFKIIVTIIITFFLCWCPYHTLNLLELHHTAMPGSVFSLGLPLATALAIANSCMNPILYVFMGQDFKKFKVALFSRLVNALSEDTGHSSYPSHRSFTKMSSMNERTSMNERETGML
Chain of N-formyl peptide receptor 2 (Homo sapiens) (P25090 whole entry): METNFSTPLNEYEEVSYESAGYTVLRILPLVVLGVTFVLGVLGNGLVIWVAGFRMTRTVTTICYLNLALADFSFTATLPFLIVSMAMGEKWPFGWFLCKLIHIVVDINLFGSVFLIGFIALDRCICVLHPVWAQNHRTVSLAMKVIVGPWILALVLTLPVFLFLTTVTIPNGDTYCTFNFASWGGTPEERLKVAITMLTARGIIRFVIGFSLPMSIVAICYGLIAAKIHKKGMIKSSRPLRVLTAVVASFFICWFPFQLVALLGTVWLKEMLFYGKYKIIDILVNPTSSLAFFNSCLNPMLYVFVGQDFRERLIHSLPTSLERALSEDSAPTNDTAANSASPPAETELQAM
Chain of C-X-C chemokine receptor type 4 (Homo sapiens) (P61073 whole entry): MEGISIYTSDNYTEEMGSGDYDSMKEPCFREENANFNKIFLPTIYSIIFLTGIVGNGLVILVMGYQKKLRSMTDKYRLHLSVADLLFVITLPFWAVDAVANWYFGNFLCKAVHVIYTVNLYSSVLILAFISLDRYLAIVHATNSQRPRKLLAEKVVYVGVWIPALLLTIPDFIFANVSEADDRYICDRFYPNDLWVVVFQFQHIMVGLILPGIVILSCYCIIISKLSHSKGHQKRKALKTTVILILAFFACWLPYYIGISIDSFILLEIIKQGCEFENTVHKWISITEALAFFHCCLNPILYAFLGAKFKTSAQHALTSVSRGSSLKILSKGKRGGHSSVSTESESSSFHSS
Chain of Cytochrome P450 2D6 (P10635 whole entry): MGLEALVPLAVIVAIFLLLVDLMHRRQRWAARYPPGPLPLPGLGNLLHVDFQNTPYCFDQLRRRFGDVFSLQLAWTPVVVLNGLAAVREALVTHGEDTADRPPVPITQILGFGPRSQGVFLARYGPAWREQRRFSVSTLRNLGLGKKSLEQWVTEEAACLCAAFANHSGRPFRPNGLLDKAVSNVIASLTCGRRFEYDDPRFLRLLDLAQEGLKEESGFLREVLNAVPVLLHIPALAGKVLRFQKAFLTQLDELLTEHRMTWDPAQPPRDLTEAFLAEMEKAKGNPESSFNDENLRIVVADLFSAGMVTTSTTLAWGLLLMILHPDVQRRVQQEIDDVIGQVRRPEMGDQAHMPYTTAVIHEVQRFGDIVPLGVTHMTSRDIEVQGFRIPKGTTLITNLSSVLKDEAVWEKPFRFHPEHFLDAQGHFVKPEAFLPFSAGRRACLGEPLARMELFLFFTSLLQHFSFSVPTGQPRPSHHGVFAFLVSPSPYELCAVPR
Chain of C-C chemokine receptor type 5 (Homo sapiens) (P51681 whole entry, looked up): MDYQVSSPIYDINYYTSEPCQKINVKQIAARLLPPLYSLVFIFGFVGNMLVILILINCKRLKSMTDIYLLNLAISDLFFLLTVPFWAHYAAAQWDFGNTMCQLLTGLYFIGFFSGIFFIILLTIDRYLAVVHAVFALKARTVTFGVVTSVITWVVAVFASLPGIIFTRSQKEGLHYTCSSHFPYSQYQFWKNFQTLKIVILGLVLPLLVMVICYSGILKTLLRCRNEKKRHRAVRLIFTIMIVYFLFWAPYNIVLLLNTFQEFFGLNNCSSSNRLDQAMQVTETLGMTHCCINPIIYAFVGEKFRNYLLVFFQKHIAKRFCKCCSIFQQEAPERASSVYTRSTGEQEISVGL

In the case of `Cc1ncn(CC(=O)N2CCN(c3sc(C(F)(F)F)nc3-c3cnc(C(F)(F)F)nc3)C[C@H]2CCO)n1`, the fraction unbound at 20 ug/ml [1] is reported as 0.4, the IC50 [2] is reported as 3.2 nM and the Activity [3] is reported as “inactive”. For the same compound, the “inhibition (INH)” value [4] was “Toxic”, the Activity (Mus musculus) was “Dose-Dependent Effect” and the fraction unbound at 6 h, 1 µM [5] was 0.34. The Activity [6] was “Toxic”, the Vd [7] was 1.3 L/kg and the Activity [8] was “inactive”. The Tmax [9] was 24 min, the microsomal CLint at 1 µM [10] was < 10 µL/min/mg and the IC50 [11] was 56.3 nM. The fraction unbound [12] was 0.48, the IC50 [13] was 4 nM and the IC50 (Cytochrome P450 2D6) was > 50000 nM. The concentration at 72 h [14] was 267 ng/mL, the Activity [15] was 45% and the Activity [16] was “inactive”. For the same compound, the Stability [17] was “Unstable”, the fraction unbound [18] was 0.1 and the pKa [19] was 2.2. The Stability [20] was “Unstable”, the Activity [21] was “inactive” and the CLH [22] was < 2 µL/min/mg. The Activity [23] was “inactive”, the Stability [24] was “Unstable” and the IC50 [25] was 291 nM. It also gave a clearance [26] of 5.3 mL/min/kg.
